The values below come from patent US20120065195A1, “COMPOUNDS FOR TREATING NEURODEGENERATIVE DISEASES” (priority 2010, published 2012).

The target in the test is T1, BACE1 (Homo sapiens, UniProt P56817).
T1 construct: endogenous in cells; host or cells: HEK-293 (stably transfected with wild type APP695 only)
T1 sequence (P56817 46-501): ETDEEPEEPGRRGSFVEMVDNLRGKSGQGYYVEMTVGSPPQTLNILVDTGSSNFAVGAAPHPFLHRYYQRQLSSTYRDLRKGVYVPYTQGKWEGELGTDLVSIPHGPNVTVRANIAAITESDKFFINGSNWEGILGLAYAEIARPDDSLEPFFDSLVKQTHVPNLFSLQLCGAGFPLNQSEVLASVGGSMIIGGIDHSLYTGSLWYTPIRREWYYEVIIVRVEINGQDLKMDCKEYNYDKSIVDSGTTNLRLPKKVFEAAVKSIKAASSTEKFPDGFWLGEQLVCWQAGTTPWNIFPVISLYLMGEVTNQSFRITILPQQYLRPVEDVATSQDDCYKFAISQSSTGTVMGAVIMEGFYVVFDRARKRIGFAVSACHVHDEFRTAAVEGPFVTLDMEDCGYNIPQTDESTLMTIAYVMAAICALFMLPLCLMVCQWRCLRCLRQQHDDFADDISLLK
Description: Cellular BACE1 Inhibition Assay (in vitro cellular Amyloidβ 1-40 production assay, HTRF immunoassay). It is filed as cell-based. The protocol: The BACE inhibition properties of the compounds of the invention may be determined by the following in vitro cellular Amyloidβ 1-40 production assay.
Inhibition of Amyloidβ1-40 production was determined by incubating cells with compound for 48 hours and quantifying the level of Amyloidβ 1-40 using an HTRF immunoassay.
Materials and Methods: HEK-293 cells stably transfected with a DNA construct containing the coding sequence for the wild type APP695 sequence were grown in DMEM supplemented with 10% fetal bovine serum, penicillin/streptomycin and 150 μg/mL G418. Cells were plated in 96-well plates at 35,000 cells/well and allowed to attach for 8-12 hours. Media was changed to DMEM supplemented with 10% fetal bovine serum, penicillin/streptomycin 15 minutes prior to compound addition. Diluted compounds were then added at a final concentration of 0.5% DMSO. After 48 hours, 4 μL of media from each well was added to a corresponding well of a 384 well plate (Perkin Elmer Cat#6008280) containing the HTRF reagents. HTRF reagents were obtained from the CisBio Amyloidβ 1-40 peptide assay kit (Cat#62B40PEC) and were prepared as follows anti-peptide β (1-40)-Cryptate and anti-peptide β (1-40)-XL655 were stored in 2 plate aliquots at −80° C. Diluent and Reconstitution buffer were stored at 4° C. Aliquots of the two antibodies were diluted 1:100 with Reconstitution buffer, and this mixture was diluted 1:2 with Diluent. 12 μL of the reagent mixture was added to the required wells of the 384 well assay plate. The assay plate was incubated at 4° C. for 17 hours and then analyzed for fluorescence at 665 and 620 nm.
Compound `CN1C(=O)C2(N=C1N)c1cc(-c3cncnc3)ccc1CC(C)(C)C2(F)F` (stereo not drawn) [Example 160, 2-amino-2′,2′-difluoro-1,3′,3′-trimethyl-7′-(pyrimidin-5-yl)-3′,4′-dihydro-2′H-spiro[imidazole-4,1′-naphthalen]-5(1H)-one] gave a half-maximal inhibitory concentration (IC50) of 87.3 nM. As to `Cc1cnc(F)c(-c2ccc3c(c2)C2(CC(C)(C)C3)N=C(N)N(C)C2=O)c1` (stereo not drawn) [Example 135, 2-amino-7′-(2-fluoro-5-methylpyridin-3-yl)-1,3′,3′-trimethyl-3′,4′-dihydro-2′H-spiro[imidazole-4,1′-naphthalen]-5(1H)-one], the IC50 worked out at 8.1 nM. With `Cc1cc(C(=O)Nc2ccc3c(c2)C2(CCSC(N)=N2)CC(C)(C)C3)c(C)o1` (stereo not drawn) [Example 95, N-(2′-amino-3,3-dimethyl-3,4,5′,6′-tetrahydro-2H-spiro[naphthalene-1,4′-[1,3]thiazine]-7-yl)-2,5-dimethylfuran-3-carboxamide], the IC50 was 276 nM. Turning to `CN1C(=O)[C@]2(C[C@@](C)(Cc3ccccc3)Cc3ccc(-c4cncc(Cl)c4)cc32)N=C1N` [Example 147, (1′R,3′S)-2-amino-3′-benzyl-7′-(5-chloropyridin-3-yl)-1,3′-dimethyl-3′,4′-dihydro-2′H-spiro[imidazole-4,1′-naphthalen]-5(1H)-one], it took 1.3 nM to reach half-maximal inhibition (IC50). Against the preceding compound, the IC50 is about 210-fold lower. On to `CN1C(=O)C2(CC3(CCC3)Cc3ccc(-c4cccc(Cl)c4)cc32)N=C1N` (stereo not drawn) [Example 37, 2-amino-7′-(3-chlorophenyl)-1-methyl-5-oxo-3′,4′-dihydro-2′H-dispiro[imidazol-4,1′-naphthalen-3′,1″-cyclobutyl]-5 (1H)-one], for which the half-inhibitory concentration (IC50) came out at 241 nM. Take `CN1C(=O)C2(N=C1N)c1cc(-c3cncc(Cl)c3)ccc1CCC2(C)C` (stereo not drawn) [Example 26, 2-amino-7′-(5-chloropyridin-3-yl)-1,2′,2′-trimethyl-3′,4′-dihydro-2′H-spiro[imidazole-4,1′-naphthalen]-5(1H)-one]: inhibition was half-maximal at 19.7 nM (IC50). In turn, `COc1ccnc(-c2ccc3c(c2)C2(CC(C)(C)C3)N=C(N)N(C)C2=O)c1` (stereo not drawn) [Example 137, 2-amino-7′-(4-methoxypyridin-2-yl)-1,3′,3′-trimethyl-3′,4′-dihydro-2′H-spiro[imidazole-4,1′-naphthalen]-5(1H)-one] yielded an IC50 of 6.1 nM. In turn, `CN1C(=O)C2(N=C1N)c1cc(-c3cccc(C#N)c3)ccc1CCC2(C)C` (stereo not drawn) [Example 28, 3-(2-amino-1,2′,2′-trimethyl-5-oxo-1,3′,4′,5-tetrahydro-2′H-spiro[imidazole-4,1′-naphthalene]-7′-yl)benzonitrile] showed a concentration for half-maximal inhibition (IC50) of 92.5 nM. As for `CN1C(=O)CC2(CC(C)(C)Cc3ccc(-c4cccnc4F)cc32)N=C1N` (stereo not drawn) [Example 96, 2′-amino-7-(2-fluoropyridin-3-yl)-1′,3,3-trimethyl-3,4-dihydro-1′H,2H-spiro[naphthalene-1,4′-pyrimidin]-6′(5′H)-one], the IC50 was 1320 nM.
